PMC7734281, “Functionalized Oxoindolin Hydrazine Carbothioamide Derivatives as Highly Potent Inhibitors of Nucleoside Triphosphate Diphosphohydrolases” (Frontiers in Pharmacology, 2020)
“Also recorded” adds a separate entry of the source.

Assays:
h-NTPDase2 = target: T1, h-NTPDase2 (Homo sapiens, UniProt Q9Y5L3); assay: h-NTPDase2 inhibition, malachite green assay; type: biochemical; details: Lineweaver-Burk plot
T1 construct: made in house; host or cells: COS-7 cells, transient transfection; crude protein extract after sonication
T1 sequence (Q9Y5L3 1-495): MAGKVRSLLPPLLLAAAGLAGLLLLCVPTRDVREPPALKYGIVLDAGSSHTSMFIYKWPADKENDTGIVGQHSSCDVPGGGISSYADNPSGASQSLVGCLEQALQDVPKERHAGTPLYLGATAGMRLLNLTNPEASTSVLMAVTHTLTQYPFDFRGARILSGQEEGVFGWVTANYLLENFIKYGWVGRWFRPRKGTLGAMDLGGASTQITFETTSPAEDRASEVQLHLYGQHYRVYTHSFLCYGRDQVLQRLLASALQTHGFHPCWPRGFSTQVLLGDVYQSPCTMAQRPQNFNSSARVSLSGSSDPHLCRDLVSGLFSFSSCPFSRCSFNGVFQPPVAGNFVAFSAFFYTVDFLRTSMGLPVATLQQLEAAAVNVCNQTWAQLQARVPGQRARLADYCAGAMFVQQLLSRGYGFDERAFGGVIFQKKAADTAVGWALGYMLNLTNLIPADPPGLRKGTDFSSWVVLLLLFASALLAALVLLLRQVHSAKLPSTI

NTPDase3 mRNA = NTPDase3 mRNA expression in mice islets by real time qPCR; type: cell-based
Procedure: Freshly isolated mice islets were incubated in KRBB at 37°C with glucose (3 mM). After 45 min, these islets were treated with test compounds in KRBB at 37°C for 3 h, in the presence of stimulatory glucose concentration. Once the incubation was complete, supernatant was removed carefully, and RNA was extracted from these islets.
Total RNA was extracted using TRIzol reagent, according to manufacturer’s instruction. The concentration of isolated RNA was quantified by using Lvis plate method (FLUOstar Omega, BMG Labtech, Ortenberg, Germany). This RNA was then reverse transcribed to cDNA in a total reaction volume of 20 µl. Briefly, a reaction mixture containing RNA (1 µg) and oligo-dT (20 μM, 1 µl) was prepared and volume was adjusted to 12 µl with nuclease free water. The prepared mixture was incubated at 65°C for 5 min and then immediately chilled on ice. Afterward, 8 µl of master mix containing 5X reaction buffer (4 µl), rnase inhibitor (1 µl), dNTPs mix (10 mM, 2 µl) and reverse transcriptase (1 µl) was added to above sample. After gentle pipetting, sample was run under following conditions: 25°C for 5 min, 42°C for 70 min and 70°C for 5 min. Once the cDNA was synthesized, real time quantitative PCR was conducted by using PikoReal 96 Real-Time PCR system (Thermo Scientific, Vantaa, Finland). […] Relative expression was determined by normalization to β actin mRNA by ΔΔCT method.

Compound | Mode of inhibition of h-NTPDase2 (h-NTPDase2) | Effect on expression level of β-actin (housekeeping gene) (NTPDase3 mRNA; mice islets treated 3 h) | Effect on NTPDase3 gene expression (mRNA) (NTPDase3 mRNA; mice islets treated 3 h at stimulatory glucose, normalized to β actin, versus control)
COc1ccc(OC)c(NC(=S)N/N=C2\C(=O)Nc3ccccc32)c1 [8j, (Z)-N-(2,5-dimethoxyphenyl)-2-(2-oxoindolin-3-ylidene)hydrazine-1-carbothioamide] | competitive | – | –
CCNC(=S)N/N=C1\C(=O)Nc2ccccc21 [8m, (Z)-N-ethyl-2-(2-oxoindolin-3-ylidene)hydrazine-1-carbothioamide] | – | not affected | no significant effect (p > 0.05); also recorded: had not suppressed the gene expression of NTPDase3; also recorded: without affecting the NTPDase3 gene expression
